Experiment: recombinant barcode read abundance after kanamycin selection (control-corrected) (log10(CPM+1)); higher = more efficient recombination; sequences stand for … in AGTGCAGAGAAAATCGGCCAGTTTTCTCTGCCTGCAGTCCGCATGCCGT…AGATTTATGCAGCGGACTGCCTTTCTCCCAAAGTGATAAACCGGACAGTATCATGGACCGGTTTTCCCGGTAATCCGTATTTGCAAGGTTGGTTTCACT; site = the 11-nt target
Outline: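 A vector carrying a T7-inducible recombinase and the last 73 bp of the bridge RNA received, by Gibson cloning, oligos encoding a promoter, target, barcode and the first 104 bridge RNA bases under J23119. The pooled constructs entered E. coli together with a donor plasmid by electroporation. Selection used chloramphenicol/ampicillin/kanamycin with 0.1 mM IPTG, with chloramphenicol/ampicillin LB agar as the control, each in two replicates. Recombination efficiency is the averaged, control-corrected counts-per-million of barcodes at recombinant junctions, reported as log10(CPM+1).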
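Note: IS621 recombinase and bridge RNA in Escherichia coli cells.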

First: TTAGACTCTTGGGTTCTAACCTGTTGCCA (site TTAGACTCTTA)
Second: TTAGACTCTTGGGTTCTAACCTGTTGCCA (site TTAGACTCTTG)
The “recombinant barcode read abundance (log10)” value of the first is lower: 0.0659 for the first, 1.06 for the second.

“TTAGCTTCTTGGGTTCTAACCTGTTGCCT (site TTAGCATCTAG)” and “TTAGCTTCTTGGGTTCTAACCTGTTGCCT (site TTAGCCTCTAG)” are within 0.2 log units of each other in “recombinant barcode read abundance (log10)” value: 0.078 for the first, 0.0176 for the second.

“TTAGCTTCTTGGGTTCTAACCTGTTGCCT (site TTAGCGTCTAG)” and “TTAGCTTCTTGGGTTCTAACCTGTTGCCT (site TTAGCTTCTAG)” are within 0.2 log units of each other in “recombinant barcode read abundance (log10)” value: 0.0371 for the first, 0.163 for the second.

First: TTATACACTTGGGTTCTAACCTGTTGCAG (site CAGCGGTCTTC)
Second: TTATACACTTGGGTTCTAACCTGTTGCAG (site TTATACACTCT)
The “recombinant barcode read abundance (log10)” value of the first is lower: 0.0563 for the first, 1.98 for the second.

Compared with “TTATGAGCTTGGGTTCTAACCTGTTGCCG (site ATATGAGCTTG)”, “TTATGAGCTTGGGTTCTAACCTGTTGCCG (site TTATGAGCTCG)” is higher in “recombinant barcode read abundance (log10)” value: 0.012 for the first, 1.2 for the second.

First: TTATGGTCTTGGGTTCTAACCTGTTGCTA (site TCTTGGTCTTA)
Second: TTATGGTCTTGGGTTCTAACCTGTTGCTA (site TTATGGTCTTA)
The “recombinant barcode read abundance (log10)” value of the first is lower: 0.257 for the first, 0.705 for the second.

Compared with “TTATTGTCTTGGGTTCTAACCTGTTGCCT (site TTATTGTCTAG)”, “TTATTGTCTTGGGTTCTAACCTGTTGCCT (site TTCTTGCCTAG)” is lower in “recombinant barcode read abundance (log10)” value: 1.37 for the first, 0.024 for the second.

Going from “TTCAAACCTTGGGTTCTAACCTGTTGCCT (site TTCAAAACTAG)” to “TTCAAACCTTGGGTTCTAACCTGTTGCCT (site TTCAAACCTAG)”, the “recombinant barcode read abundance (log10)” value rises from 0.0532 to 0.612.

“TTCAAACCTTGGGTTCTAACCTGTTGCCT (site TTCAAAGCTAG)” and “TTCAAACCTTGGGTTCTAACCTGTTGCCT (site TTCAAATCTAG)” are within 0.2 log units of each other in “recombinant barcode read abundance (log10)” value: 0.0476 for the first, 0.115 for the second.

“TTCAAATCTTGGGTTCTAACCTGTTGCCT (site TTCAAAACTAG)” and “TTCAAATCTTGGGTTCTAACCTGTTGCCT (site TTCAAACCTAG)” are within 0.2 log units of each other in “recombinant barcode read abundance (log10)” value: 0.0847 for the first, 0.242 for the second.

“TTCAAATCTTGGGTTCTAACCTGTTGCCT (site TTCAAAGCTAG)” and “TTCAAATCTTGGGTTCTAACCTGTTGCCT (site TTCAAATCTAG)” are within 0.2 log units of each other in “recombinant barcode read abundance (log10)” value: 0.182 for the first, 0 for the second.

Compared with “TTCAAGCCTTGGGTTCTAACCTGTTGCCT (site TTCAAGACTAG)”, “TTCAAGCCTTGGGTTCTAACCTGTTGCCT (site TTCAAGCCTAG)” is higher in “recombinant barcode read abundance (log10)” value: 0.0598 for the first, 0.329 for the second.

“TTCAAGCCTTGGGTTCTAACCTGTTGCCT (site TTCAAGGCTAG)” and “TTCAAGCCTTGGGTTCTAACCTGTTGCCT (site TTCAAGTCTAG)” are within 0.2 log units of each other in “recombinant barcode read abundance (log10)” value: 0.0261 for the first, 0.0767 for the second.

Going from “TTCACACCTTGGGTTCTAACCTGTTGCCT (site TTCACACCTAG)” to “TTCACACCTTGGGTTCTAACCTGTTGCCT (site TTCACAGCTAG)”, the “recombinant barcode read abundance (log10)” value falls from 0.385 to 0.00569.

First: TTCAGGGCTTGGGTTCTAACCTGTTGCAG (site AGAGCCTCTTA)
Second: TTCAGGGCTTGGGTTCTAACCTGTTGCAG (site TTCAGGGCTCT)
The “recombinant barcode read abundance (log10)” value of the first is lower: 0.111 for the first, 1.99 for the second.

“TTCATACCTTGGGTTCTAACCTGTTGCTT (site GTCTTACCTAA)” and “TTCATACCTTGGGTTCTAACCTGTTGCTT (site TTCATACCTAA)” are within 0.2 log units of each other in “recombinant barcode read abundance (log10)” value: 0.0129 for the first, 0.0848 for the second.

First: TTCATGTCTTGGGTTCTAACCTGTTGCTT (site CTCATGTCTAA)
Second: TTCATGTCTTGGGTTCTAACCTGTTGCTT (site TTCATGTCTAA)
The “recombinant barcode read abundance (log10)” value of the first is lower: 0.138 for the first, 0.421 for the second.

Going from “TTCCACACTTGGGTTCTAACCTGTTGCGG (site TTCCAAACTCC)” to “TTCCACACTTGGGTTCTAACCTGTTGCGG (site TTCCACACTCC)”, the “recombinant barcode read abundance (log10)” value rises from 0.116 to 1.04.

Source: the supplement of paper PMC11208160
